T/C data for 16 molecules are collected here from PubChem BioAssay AID270 (DTP/NCI, 2004).

The experiment concerns BDF1 mice, s.c. Lewis lung carcinoma, T/C %. The experiment can be described thus: NCI In Vivo Anticancer Drug Screen. Data for tumor model Lewis Lung Carcinoma (subcutaneous) in B6D2F1 (BDF1) mice. An outline of the steps: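 Tumor-bearing mice were treated with test compound, and either survival or tumor size was recorded. Values are the treated-group measurement divided by that of the vehicle-treated control group.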

[1] abbreviates: endpoint: mean tumor weight, dose: 125.0 mg/kg/injection, schedule: Q01DX011 (ip), vehicle: saline, higher = larger tumour.

Where “and” joins values, the source holds several entries; their conditions need not be identical. Equal values may be shown once. Results filed as inconclusive are left out.

As for `Nc1c(Cl)c(Cl)nc(C(=O)O)c1Cl`, the T/C runs as follows: (endpoint: median survival time, dose: 25.0 mg/kg/injection, schedule: Q02DX009 (ip), vehicle: Klucel (hydroxypropylcellulose) (HPC), higher = longer survival) 109 % of control; (endpoint: median survival time, dose: 25.0 mg/kg/injection, schedule: Q02DX009 (ip), vehicle: distilled water + Tween-80, higher = longer survival) 121 % of control; (endpoint: median survival time, dose: 50.0 mg/kg/injection, schedule: Q02DX009 (ip), vehicle: Klucel (hydroxypropylcellulose) (HPC), higher = longer survival) 98 % of control; (endpoint: median survival time, dose: 50.0 mg/kg/injection, schedule: Q02DX009 (ip), vehicle: distilled water + Tween-80, higher = longer survival) 104 % of control; (endpoint: median survival time, dose: 100.0 mg/kg/injection, schedule: Q02DX009 (ip), vehicle: Klucel (hydroxypropylcellulose) (HPC), higher = longer survival) 91 % of control; (endpoint: median survival time, dose: 100.0 mg/kg/injection, schedule: Q02DX009 (ip), vehicle: distilled water + Tween-80, higher = longer survival) 88 % of control. The T/C is, setting by setting: (endpoint: median survival time, dose: 200.0 mg/kg/injection, schedule: Q02DX009 (ip), vehicle: Klucel (hydroxypropylcellulose) (HPC), higher = longer survival) 92 % of control; (endpoint: median survival time, dose: 200.0 mg/kg/injection, schedule: Q02DX009 (ip), vehicle: distilled water + Tween-80, higher = longer survival) 100 % of control.

Consider `CCC(=O)O[C@H]1CC[C@H]2[C@@H]3CCC4=CC(=O)CC[C@]4(C)[C@H]3CC[C@]12C`, for which the T/C was 86 % of control (endpoint: mean tumor weight, dose: 125.0 mg/kg/injection, schedule: Q01DX011 (ip), vehicle: steriod suspending solution, higher = larger tumour); 70 % of control (endpoint: mean tumor weight, dose: 250.0 mg/kg/injection, schedule: Q01DX011 (ip), vehicle: steriod suspending solution, higher = larger tumour); 84 % of control (endpoint: mean tumor weight, dose: 500.0 mg/kg/injection, schedule: Q01DX011 (ip), vehicle: steriod suspending solution, higher = larger tumour); 90 % of control (endpoint: median survival time, dose: 40.0 mg/kg/injection, schedule: Q02DX009 (ip), vehicle: Klucel (hydroxypropylcellulose) (HPC), higher = longer survival); 97 % of control (endpoint: median survival time, dose: 80.0 mg/kg/injection, schedule: Q02DX009 (ip), vehicle: Klucel (hydroxypropylcellulose) (HPC), higher = longer survival); 103 % of control (endpoint: median survival time, dose: 160.0 mg/kg/injection, schedule: Q02DX009 (ip), vehicle: Klucel (hydroxypropylcellulose) (HPC), higher = longer survival). Under “endpoint: median survival time, dose: 320.0 mg/kg/injection, schedule: Q02DX009 (ip), vehicle: Klucel (hydroxypropylcellulose) (HPC), higher = longer survival”, the T/C is 90 % of control.

Take `CC(C)=CCC/C(C)=C/CO`: the T/C (endpoint: mean tumor weight, dose: 3.9 mg/kg/injection, schedule: Q01DX011 (ip), vehicle: saline, higher = larger tumour) was 74 % of control; the T/C (endpoint: mean tumor weight, dose: 7.8 mg/kg/injection, schedule: Q01DX011 (ip), vehicle: saline, higher = larger tumour) was 85 % of control; the T/C (endpoint: mean tumor weight, dose: 15.6 mg/kg/injection, schedule: Q01DX011 (ip), vehicle: saline, higher = larger tumour) was 71 % of control; the T/C (endpoint: mean tumor weight, dose: 31.3 mg/kg/injection, schedule: Q01DX011 (ip), vehicle: saline, higher = larger tumour) is 68 % of control and 73 % of control; the T/C (endpoint: mean tumor weight, dose: 62.5 mg/kg/injection, schedule: Q01DX011 (ip), vehicle: saline, higher = larger tumour) was 105 % of control.

On to `CCOC(=O)C(=CNc1cccc(Cl)c1)C(=O)OCC`, for which the T/C by setting is: (endpoint: mean tumor weight, dose: 148.0 mg/kg/injection, schedule: Q01DX011 (ip), vehicle: other, higher = larger tumour) 153 % of control; (endpoint: mean tumor weight, dose: 222.0 mg/kg/injection, schedule: Q01DX011 (ip), vehicle: other, higher = larger tumour) 113 % of control.

On to `CC(C)CCSc1nc(N)nc2nc[nH]c12`, for which the T/C (endpoint: mean tumor weight, dose: 300.0 mg/kg/injection, schedule: Q01DX011 (ip), vehicle: other, higher = larger tumour) was 59 % of control.

As to `CCN(CC)C(=S)S`, the T/C was 86 % of control under setting [1]; 123 % of control and 124 % of control (endpoint: median survival time, dose: 125.0 mg/kg/injection, schedule: Q01DX011 (ip), vehicle: saline, higher = longer survival); 112 % of control and 116 % of control (endpoint: median survival time, dose: 250.0 mg/kg/injection, schedule: Q01DX011 (ip), vehicle: saline, higher = longer survival); 104 % of control and 105 % of control (endpoint: median survival time, dose: 500.0 mg/kg/injection, schedule: Q01DX011 (ip), vehicle: saline, higher = longer survival); 102 % of control and 105 % of control (endpoint: median survival time, dose: 1000.0 mg/kg/injection, schedule: Q01DX011 (ip), vehicle: saline, higher = longer survival).

With `O=C(O)C1(NO)CCCC1`, the T/C reads like this: (endpoint: mean tumor weight, dose: 55.0 mg/kg/injection, schedule: Q01DX011 (ip), vehicle: saline, higher = larger tumour) 73 % of control; (endpoint: mean tumor weight, dose: 83.0 mg/kg/injection, schedule: Q01DX011 (ip), vehicle: saline, higher = larger tumour) 29 % of control; under setting [1], 27 % of control.

As for `CCn1cnc2c(=S)nc(N)[nH]c21`, the T/C was 81 % of control (endpoint: mean tumor weight, dose: 3.8 mg/kg/injection, schedule: Q01DX011 (ip), vehicle: other, higher = larger tumour); 63 % of control (endpoint: mean tumor weight, dose: 7.5 mg/kg/injection, schedule: Q01DX011 (ip), vehicle: other, higher = larger tumour); 17 % of control (endpoint: mean tumor weight, dose: 15.0 mg/kg/injection, schedule: Q01DX011 (ip), vehicle: other, higher = larger tumour).

`C[C@]12CCC(=O)C=C1CC[C@@H]1[C@@H]2[C@@H](O)C[C@@]2(C)[C@H]1CC[C@]2(O)C(=O)CF`: the T/C by setting is: (endpoint: mean tumor weight, dose: 3.13 mg/kg/injection, schedule: Q01DX011 (sc), vehicle: steriod suspending solution, higher = larger tumour) 70 % of control; (endpoint: mean tumor weight, dose: 6.25 mg/kg/injection, schedule: Q01DX011 (sc), vehicle: steriod suspending solution, higher = larger tumour) 68 % of control; (endpoint: mean tumor weight, dose: 12.5 mg/kg/injection, schedule: Q01DX011 (sc), vehicle: steriod suspending solution, higher = larger tumour) 65 % of control; (endpoint: mean tumor weight, dose: 25.0 mg/kg/injection, schedule: Q01DX011 (sc), vehicle: steriod suspending solution, higher = larger tumour) 33 % of control.

As to `CC(C)Sc1nc(N)nc2nc[nH]c12`, the T/C by setting is: (endpoint: mean tumor weight, dose: 12.5 mg/kg/injection, schedule: Q01DX011 (ip), vehicle: other, higher = larger tumour) 75 % of control; (endpoint: mean tumor weight, dose: 25.0 mg/kg/injection, schedule: Q01DX011 (ip), vehicle: other, higher = larger tumour) 95 % of control; (endpoint: mean tumor weight, dose: 50.0 mg/kg/injection, schedule: Q01DX011 (ip), vehicle: other, higher = larger tumour) 67 % of control; (endpoint: mean tumor weight, dose: 100.0 mg/kg/injection, schedule: Q01DX011 (ip), vehicle: other, higher = larger tumour) 48 % of control and 62 % of control; (endpoint: mean tumor weight, dose: 200.0 mg/kg/injection, schedule: Q01DX011 (ip), vehicle: other, higher = larger tumour) 52 % of control; (endpoint: mean tumor weight, dose: 400.0 mg/kg/injection, schedule: Q01DX011 (ip), vehicle: other, higher = larger tumour) 30 % of control.

In the case of `COc1cccc(C=O)c1O`, the T/C (endpoint: mean tumor weight, dose: 12.5 mg/kg/injection, schedule: Q01DX011 (ip), vehicle: carboxymethylcellulose (CMC), higher = larger tumour) was 106 % of control; the T/C (endpoint: mean tumor weight, dose: 25.0 mg/kg/injection, schedule: Q01DX011 (ip), vehicle: carboxymethylcellulose (CMC), higher = larger tumour) was 58 % of control; the T/C (endpoint: mean tumor weight, dose: 50.0 mg/kg/injection, schedule: Q01DX011 (ip), vehicle: carboxymethylcellulose (CMC), higher = larger tumour) is 88 % of control.

On to `O=C(O)c1cc(O)c(O)c(O)c1`, for which the T/C by setting is: (endpoint: mean tumor weight, dose: 50.0 mg/kg/injection, schedule: Q01DX011 (ip), vehicle: saline, higher = larger tumour) 111 % of control; (endpoint: mean tumor weight, dose: 200.0 mg/kg/injection, schedule: Q01DX011 (ip), vehicle: saline, higher = larger tumour) 89 % of control; (endpoint: mean tumor weight, dose: 400.0 mg/kg/injection, schedule: Q01DX011 (ip), vehicle: saline, higher = larger tumour) 99 % of control.

With `O=C(O)CP(=O)(O)O`, the T/C is 105 % of control (endpoint: median survival time, dose: 4.0 mg/kg/injection, schedule: Q01DX009 (ip), vehicle: saline, higher = longer survival); 97 % of control (endpoint: median survival time, dose: 8.0 mg/kg/injection, schedule: Q01DX009 (ip), vehicle: saline, higher = longer survival); 106 % of control (endpoint: median survival time, dose: 16.0 mg/kg/injection, schedule: Q01DX009 (ip), vehicle: saline, higher = longer survival); 91 % of control (endpoint: median survival time, dose: 32.0 mg/kg/injection, schedule: Q01DX009 (ip), vehicle: saline, higher = longer survival); 87 % of control (endpoint: median survival time, dose: 64.0 mg/kg/injection, schedule: Q01DX009 (ip), vehicle: saline, higher = longer survival); 86 % of control (endpoint: median survival time, dose: 128.0 mg/kg/injection, schedule: Q01DX009 (ip), vehicle: saline, higher = longer survival).

In the case of `O=c1[nH]cnc2n[nH]nc12`, the T/C was 76 % of control (endpoint: mean tumor weight, dose: 49.0 mg/kg/injection, schedule: Q01DX011 (ip), vehicle: other, higher = larger tumour); 64 % of control (endpoint: mean tumor weight, dose: 98.0 mg/kg/injection, schedule: Q01DX011 (ip), vehicle: other, higher = larger tumour); 55 % of control (endpoint: mean tumor weight, dose: 147.0 mg/kg/injection, schedule: Q01DX011 (ip), vehicle: other, higher = larger tumour); 67 % of control (endpoint: mean tumor weight, dose: 220.0 mg/kg/injection, schedule: Q01DX011 (ip), vehicle: other, higher = larger tumour).

Take `ClCCN(CCCl)CC(Cl)COc1cccc2ccccc12` (centres undefined): the T/C is 92 % of control and 103 % of control (endpoint: median survival time, dose: 1.25 mg/kg/injection, schedule: Q01DX009 (ip), vehicle: Klucel (hydroxypropylcellulose) (HPC), higher = longer survival); 96 % of control and 103 % of control (endpoint: median survival time, dose: 2.5 mg/kg/injection, schedule: Q01DX009 (ip), vehicle: Klucel (hydroxypropylcellulose) (HPC), higher = longer survival); 97 % of control and 101 % of control (endpoint: median survival time, dose: 5.0 mg/kg/injection, schedule: Q01DX009 (ip), vehicle: Klucel (hydroxypropylcellulose) (HPC), higher = longer survival); 92 % of control and 110 % of control (endpoint: median survival time, dose: 10.0 mg/kg/injection, schedule: Q01DX009 (ip), vehicle: Klucel (hydroxypropylcellulose) (HPC), higher = longer survival); 96 % of control and 106 % of control (endpoint: median survival time, dose: 20.0 mg/kg/injection, schedule: Q01DX009 (ip), vehicle: Klucel (hydroxypropylcellulose) (HPC), higher = longer survival); 97 % of control (endpoint: median survival time, dose: 40.0 mg/kg/injection, schedule: Q01DX009 (ip), vehicle: Klucel (hydroxypropylcellulose) (HPC), higher = longer survival).

As to `COC(=O)C[C@](O)(CCC(C)(C)O)C(=O)O[C@@H]1C(OC)=C[C@]23CCCN2CCc2cc4c(cc2[C@H]13)OCO4`, the T/C is, setting by setting: (endpoint: mean tumor weight, dose: 0.25 mg/kg/injection, schedule: Q01DX011 (ip), vehicle: saline, higher = larger tumour) 71 % of control; (endpoint: mean tumor weight, dose: 0.5 mg/kg/injection, schedule: Q01DX011 (ip), vehicle: saline, higher = larger tumour) 85 % of control; (endpoint: mean tumor weight, dose: 2.0 mg/kg/injection, schedule: Q01DX011 (ip), vehicle: saline, higher = larger tumour) 68 % of control.
